According to patent US20060258735A1, “1,3-Bis-(substituted-phenyl)-2-propen-1-ones and their use to treat VCAM-1 mediated disorders” (priority 2000, published 2006):
Where a name gives a salt, the structure may show the parent alone. Read-outs that look alike come from different tables or passages of the source.

Assays:
[1] = tested on: VCAM-1; experiment: In vitro VCAM-1 assay (TNF stimulated vascular endothelial cells); format: cell-based; conditions: Endothelial cell
Method: The ability of a compound described herein to inhibit the expression of VCAM-1 in a host can be assessed using any known method, including that described in detail below.
Two to four confluent P150 plates were trypsinized and the cells transferred to a 50 mL conical centrifuge tube. The cells were pelleted, resuspended and counted using the trypan blue exclusion method.
Cells were resuspended at a concentration of 36,000 cells/mL and 1 mL was aliquoted per well.
Cells were split into 24 well tissue culture plates. The cells in each well should be approximately 90-95% confluent by the following day. Cells should not be older than passage 8.
Compounds were initially screened at 50 μM and 10 μM. A 50 mM stock solution for each compound was prepared in culture medium. The stock solution was diluted to 5 mM and 1 mM. When 10 μL of the 5 mM solution was added to the well (1 mL medium/well), the final concentration was 50 μM. Adding 10 μL of the 1 mM solution to the well provides a final concentration of 10 μM.
Compounds which will not go into solution in culture medium were resuspended in DMSO at a concentration of 25 mM. The stock solution was then diluted to the final concentration in culture medium. The old medium was aspirated and 1 mL of the new medium with the compound was added. For example, if the final concentration was 50 μM, the 2 μL of the 25 mM stock was added per mL of culture medium. […] was diluted for lower concentrations.
The compounds were added to the plate (each compound is done in duplicate). One plate was prepared for VCAM expression and one plate was prepared for ICAM expression.
Immediately after the compounds weree added, TNF was added to each well 100 units/mL TNF was usually added to each well. Since each lot of TNF varies in the number of units, each new lot was titrated to determine the optimum concentration. Therefore this concentration changed. If 100 units/mL was being used, TNF was dilted to 10 units/μL and 10 μL added to each well.
The plates were incubated at 37° C., 5% CO2 overnight (approximately 16 hours). The next day the plates were checked under the microscope to see if there were any visual signs of toxicity. Records were made of any cell death, debris, or morphology changes, as well as insoluble compounds (particulate or turbity).
The degree of inhibition of the compounds of formula (I) was determined by the assays.

[2] = tested on: human aortic smooth muscle cells; experiment: In vitro smooth muscle cell activity assay (3H-thymidine incorporation, serum stimulated); format: cell-based; conditions: human aortic smooth muscle cells stimulated with 5% serum
Method: Cultured human aortic smooth muscle cells were seeded in 24-well plates. When cells reached 80% confluency, they were made quiescent by changing media to 0.2% serum (as compared to 5% serum in normal culture media) for 48 hours. The cells were then stimulated by addition of 5% serum in the presence or absence of compounds dissolved in DMSO. To establish a dose curve and IC50 for each compound, multiple concentrations in 5-fold increments were used. After 20 hr incubation, 3H-thymidine (0.5 μCi/per well) was added to the cells for 4 hours of labeling. Washed cells were then lysed in NaOH and, the amount of 3H-thymidine incorporation was determined. Results are expressed as IC50 values (the amount of compound (µM) required to achieve a 50% reduction compared to control (cells stimulated with 5% serum only)).

[3] = tested on: MCP-1; experiment: In vitro MCP-1 activity assay (TNF-α stimulated endothelial cells, MCP-1 immunoassay); format: cell-based; conditions: Endothelial cell; human endothelial cells stimulated with TNF-α (1 ng/ml), approximately 16 hours, MCP-1 immunoassay of culture media
Method: Cultured human endothelial cells were seeded in 96-well plates. On the following day cells were stimulated with TNF-α (1 ng/ml) in the presence or absence of compounds dissolved in DMSO. To establish a dose curve and IC50 for each compound, multiple concentrations in 2-fold increments were used. Cells were exposed to TNF-α and compounds for approximately 16 hours. The next day the cells were visually examined via light microscopy to score for visual signs of toxicity. Cell culture media, diluted 1:10, was analyzed by an MCP-1 immunoassay kit (R & D Systems). This assay is a sandwich immunoassay using immobilized anti-MCP-1 antibody in 96-well plate to capture secreted MCP-1 in cell culture media. Captured MCP-1 is subsequently detected with a horse radish peroxidase-conjugated anti-MCP-1 antibody for color development. Results are expressed as IC50 values (the amount of compound (µM) required to achieve a 50% reduction compared to control (cells stimulated with TNF-α only)).

[4] = TNF stimulated cells, overnight (approximately 16 hours), read-out: VCAM-1 IC50
[5] = degree of inhibition of VCAM-1 expression, TNF stimulated endothelial cells, approximately 16 hours, read-out: VCAM-1 (µM)

Row | Compound | melting point | IC50 [2] [µM] | also measured
1 | COc1ccc(-c2cccs2)cc1C=CC(=O)c1ccc(Cl)c(Cl)c1O.[Na] | > 260 °C | – | –
2 | COc1cc(OCC(=O)O)c(C=CC(=O)c2cc(OC)c(OC)c(OC)c2)cc1-c1cc2ccccc2s1 (as salt: sodium) [3-[5-(benzo[b]thien-2-yl)-2-carboxymethoxy-4-methoxyphenyl]-1-(3,4,5-trimethoxyphenyl)-2-propen-1-one] | 255 to 257 °C | – | –
3 | COc1cc(C=CC(=O)c2cc(OC)c(OC)c(OC)c2)cc(Br)c1OC [3-(3-bromo-4,5-dimethoxyphenyl)-1-(3,4,5-trimethoxyphenyl)-2-propen-1-one] | – | – | IC50 [1, 4]: 4 µM
4 | COc1cc(OCC(=O)O)c(C=CC(=O)c2cc(OC)c(OC)c(OC)c2)cc1-c1cc2ccccc2s1 [3-[5-(benzo[b]thien-2-yl)-2-carboxymethoxy-4-methoxyphenyl]-1-(3,4,5-trimethoxyphenyl)-2-propen-1-one] | – | – | IC50 [1, 4]: 8.3 µM
5 | COc1cc(C=CC(=O)c2ccc(OC)c(OC)c2OC)cc(-c2cccs2)c1OC [Example 2, 3-[3,4-dimethoxy-5-(thien-2-yl)phenyl]-1-(2,3,4-trimethoxyphenyl)-2-propen-1-one] | 94 to 97 °C | 0.4 | IC50 [3]: 5 µM
6 | COc1cc(C(=O)C=Cc2cc(OC)c(OC)c(-c3cc4ccccc4s3)c2)cc(OC)c1OC [Example 4, 3-[5-(benzo[b]thien-2-yl)-3,4-dimethoxyphenyl]-1-(3,4,5-trimethoxyphenyl)-2-propen-1-one] | 150 to 151 °C | – | –
7 | COc1cc(OC)c(-c2cccs2)cc1C=CC(=O)c1cc(OC)c(OC)c(OC)c1 [Example 5, 3-[2,4-dimethoxy-5-(thien-2-yl)phenyl]-1-(3,4,5-trimethoxyphenyl)-2-propen-1-one] | 75 to 80 °C | 0.45 | –
8 | COc1cc(OC)c(-c2cc3ccccc3s2)cc1/C=C/C(=O)c1cc(OC)c(OC)c(OC)c1 [Example 6, 3-[5-(benzo[b]thien-2-yl)-2,4-dimethoxyphenyl]-1-(3,4,5-trimethoxyphenyl)-2-propen-1-one] | – | 0.33 | IC50 [3]: > 50 µM
9 | COc1ccc(-c2cccs2)cc1C=CC(=O)c1cc(OC)c(OC)c(OC)c1 [Example 7, 3-[2-methoxy-5-(thien-2-yl)phenyl]-1-(3,4,5-trimethoxyphenyl)-2-propen-1-one] | – | 1.53 | IC50 [3]: 8 µM
10 | COc1ccc(-c2cccs2)cc1C=CC(=O)c1ccc(OC)c(OC)c1 [Example 9, 3-[2-methoxy-5-(thien-2-yl)phenyl]-1-(3,4-dimethoxyphenyl)-2-propen-1-one] | – | 1.15 | IC50 [3]: 10 µM
11 | COc1ccc(C(=O)C=Cc2cc(-c3cccs3)ccc2OC)cc1 [Example 11, 3-[2-methoxy-5-(thien-2-yl)phenyl]-1-(4-methoxyphenyl)-2-propen-1-one] | – | 4.53 | IC50 [3]: 10 µM
12 | COc1ccc(-c2cccs2)cc1C=CC(=O)c1cc(OC)c(OCc2cccs2)cc1OC [Example 17, 3-[2-methoxy-5-(thien-2-yl)phenyl]-1-(2,5-dimethoxy-4-(thien-2-ylmethoxy)phenyl)-2-propen-1-one] | 54 to 73 °C | – | –
13 | COc1ccc(-c2cccs2)cc1C=CC(=O)c1ccc(I)cc1OC [Example 18, 3-[2-methoxy-5-(thien-2-yl)phenyl]-1-(4-iodo-2-methoxyphenyl)-2-propen-1-one] | 150 to 155 °C | – | –
14 | COc1cccc(-c2ccc(C(=O)C=Cc3cc(-c4cccs4)ccc3OC)c(OC)c2)c1 [Example 21, 3-[2-methoxy-5-(thien-2-yl)phenyl]-1-[2-methoxy-4-(3-methoxyphenyl)phenyl]-2-propen-1-one] | 97 to 107 °C | – | –
15 | COc1ccc(-c2cccs2)cc1C=CC(=O)c1ccc(F)c(F)c1 [Example 35, 3-[2-methoxy-5-(thien-2-yl)phenyl]-1-(3,4-difluorophenyl)-2-propen-1-one] | 100 to 105 °C | – | –
16 | COc1ccc(-c2cccs2)cc1C=CC(=O)c1ccc(Cl)c(Cl)c1O [Example 36, 3-[2-methoxy-5-(thien-2-yl)phenyl]-1-(3,4-dichloro-2-hydroxyphenyl)-2-propen-1-one] | 152 to 163 °C | – | –
17 | COc1cc(OC)c(-c2cccs2)cc1C=CC(=O)c1ccc(OC)c(OC)c1OC [Example 41, 3-[2,4-dimethoxy-5-(thien-2-yl)phenyl]-1-(2,3,4-trimethoxyphenyl)-2-propen-1-one] | – | 1.25 | –
18 | COc1cc(OC)c(-c2cc3ccccc3s2)cc1C=CC(=O)c1cc(OC)c(OCCN2CCOCC2)c(OC)c1 [Example 43, 3-[5-(benzo[b]thien-2-yl)-2,4-dimethoxyphenyl]-1-[3,5-dimethoxy-4-(2-morpholinoethoxy)phenyl]-2-propen-1-one] | 111 to 113 °C | – | –
19 | COc1cc(OC)c(-c2cc3ccccc3s2)cc1C=CC(=O)c1cc(OC)c(OCC(=O)O)c(OC)c1 [Example 44, 3-[5-(benzo[b]thien-2-yl)-2,4-dimethoxyphenyl]-1-(4-carboxymethoxy-3,5-dimethoxyphenyl)-2-propen-1-one] | 145 to 153 °C | – | –
20 | COc1cc(C=CC(=O)c2ccc(OC)c(OC)c2OC)cc(-c2cc3ccccc3s2)c1OC [Example 49, 3-[5-(benzo[b]thien-2-yl)-3,4-dimethoxyphenyl]-1-(2,3,4-trimethoxyphenyl)-2-propen-1-one] | 120 to 124 °C | – | –
21 | COc1cc(C=C2Cc3cc(-c4cccs4)ccc3C2=O)cc(OC)c1OC [Example 53] | 216 to 222 °C | – | IC50 [1, 5]: > 50 µM
22 | COc1cc2c(cc1OC)C(=O)C(=Cc1cc(OC)c(OC)c(-c3cccs3)c1)CC2 [Example 54] | 192 to 205 °C | – | IC50 [1, 5]: 2 µM
23 | COc1ccc(-c2cccs2)cc1C=C1Cc2cc(OC)c(OC)cc2C1=O [Example 55] | 164 to 172 °C | – | IC50 [1, 5]: > 50 µM
24 | COc1ccc(-c2cccs2)cc1/C=C/C(=O)c1ccc(-c2cccs2)cc1OC [Example 58] | 30 to 50 °C | – | –
25 | COc1cc(OC)c(-c2cc3ccccc3s2)cc1C=CC(=O)c1cc(OC)c(OCC(=O)[O-])c(OC)c1.[Na+] [Example 61, 3-[5-(Benzo[b]thien-2-yl)-2,4-dimethoxyphenyl]-1-(4-carboxymethoxy-3,5-dimethoxyphenyl)-2-propen-1-one, sodium salt] | 191 to 196 °C (dec.) | 0.45 | –
26 | COc1cc(OCC(=O)O)c(/C=C/C(=O)c2cc(OC)c(OC)c(OC)c2)cc1-c1cc2ccccc2s1 [Example 62, 3-[5-(Benzo[b]thien-2-yl)-2-carboxymethoxy-4-methoxyphenyl]-1-(3,4,5-trimethoxyphenyl)-2-propen-1-one, sodium salt] | – | 1.25 | –
